Laboratory results as given in patent publication EP1599478B1, “DIHYDROPTERIDINONES, METHOD FOR THE PRODUCTION AND USE THEREOF IN THE FORM OF DRUGS” (Boehringer Ingelheim Pharma GmbH & Co.KG, priority 2003, dated 2004).
pIC50: −log10 of the molar value. Like-named read-outs stand apart in the source and are kept apart here.

System: HeLaS3 Zellen
Assay: Cytotoxicity test on cultured human tumour cells (AlamarBlue)
Format: cell-based
Settings: read-out: HELA
Text: Die Wirkung der erfindungsgemäBen Verbindungen wurde im Cytotoxizitätstest an kultivierten humanen Tumorzellen und/oder in einer FACS-Analyse, beispielsweise an HeLaS3-Zellen, bestimmt.
Messung der Cytotoxizität an kultivierten humanen Tumorzellen
Zur Messung der Cytotoxizität an kultivierten humanen Tumorzellen wurden Zellen der zervikalen Carcinoma Tumorzell-Linie HeLaS3 (erhalten von American Type Culture Collection (ATCC)) in Ham's F12 Medium (Life Technologies) und 10% fötalem Rinderserum (Life Technologies) kultiviert und in der log-Wachstumsphase geerntet. Anschließend wurden die HeLaS3 Zellen in 96-well Platten (Costar) mit einer Dichte von 1000 Zellen pro well eingebracht und über Nacht in einem Inkubator (bei 37°C und 5 % CO2) inkubiert, wobei auf jeder Platte 6 wells nur mit Medium gefüllt wurden (3 wells zur Mediumkontrolle, 3 wells zur Inkubation mit reduzierten AlamarBlue). Die Wirksubstanzen wurden in verschiedenen Konzentrationen (gelöst in DMSO; Endkonzentration: 1%) zu den Zellen zugegeben (jeweils als Dreifachbestimmung) Nach 72 Stunden Inkubation wurden zu jeden well 20 µl AlamarBlue (AccuMed International) zugesetzt, und die Zellen für weitere 7 Stunden inkubiert. Zur Kontrolle wurde zu 3 wells je 20 µl reduziertes Alamar Blue gegeben (AlamarBlue Reagenz, das für 30 min autoklaviert wurde). Nach 7 h Inkubation wurde der Farbumsatz des AlamarBlue Reagenz in den einzelnen wells in einem Perkin Elmer Fluoreszenspektrophotometer bestimmt (Exitation 530 nm, Emission 590 nm, Slits 15, Integrate time 0.1). Die Menge an umgesetzten AlamarBlue Reagenz repräsentiert die metabolische Aktivität der Zellen. Die relative Zellaktivität wurde in Prozent der Kontrolle (HeLa S3 Zellen ohne Inhibitor) berechnet und die Wirkstoffkonzentration, die die Zellaktivität zu 50% hemmt (IC^50) abgeleitet. Die Werte wurden hierbei aus dem Mittelwert von drei Einzelbestimmungen - unter Korrektur des Leerwertes (Mediumkantrolle)- berechnet.

[1] = HeLa S3, HeLa cells, unit inferred

Q: With `COc1cc(C(=O)NC(C)(C)CN2CCCC2)ccc1Nc1ncc2c(n1)N(c1ccccc1OC)[C@H](C)C(=O)N2C` [compound 227] as the compound, how does the pIC50 [1] read?
A: Its pIC50 is 6.07.

Q: With `CC[C@@H]1C(=O)N(C)c2cnc(Nc3ccc(C(=O)NC(C)(C)CN4CCN(C)CC4)cc3OC)nc2N1CCC(C)C` [compound 241] as the compound, how does the pIC50 [1] read?
A: The pIC50 was 7.36.

Q: With `CC[C@@H]1C(=O)N(C)c2cnc(Nc3ccc(C(=O)NC4CCN(C)CC4)cc3OC)nc2N1C1CCCC1` [compound 46] as the compound, how does the pIC50 (HeLa S3, 72 h) read?
A: Its pIC50 is 7.92.

Q: `COc1cccc(N2c3nc(Nc4ccc(C(=O)NC5CCN(C)CC5)cc4)ncc3N(C)C(=O)[C@H]2C)c1` [compound 225] was tested. Which pIC50 [1] did it give?
A: Its pIC50 is 5.93.

Q: With `COc1cc(C(=O)NC(C)(C)CN(C)C)ccc1Nc1ncc2c(n1)N(C1CCCCC1)[C@H](C)C(=O)N2C` [compound 240] as the compound, how does the pIC50 [1] read?
A: Its pIC50 is 7.77.

Q: `COc1cc(C(=O)NC2CCNCC2)ccc1Nc1ncc2c(n1)N(C1CCCC1)[C@H](C)C(=O)N2C` [compound 238] was tested. Which pIC50 [1] did it give?
A: The pIC50 was 7.82.

Q: `COc1cc(C(=O)NC2CCN(C)CC2)ccc1Nc1ncc2c(n1)N(c1ccccc1OC)[C@H](C)C(=O)N2C` [compound 226] was tested. Which pIC50 [1] did it give?
A: Its pIC50 is 6.53.

Q: How did the pIC50 [1] turn out when `COc1cccc(N2c3nc(Nc4ccc(C(=O)NC5CCN(C)CC5)cc4OC)ncc3N(C)C(=O)[C@H]2C)c1` [compound 224] was run?
A: Its pIC50 is 5.98.

Q: How did the pIC50 [1] turn out when `CC[C@@H]1C(=O)N(C)c2cnc(Nc3ccc(C(=O)NC(C)(C)CN4CCOCC4)cc3OC)nc2N1C1CCCC1` [compound 239] was run?
A: Its pIC50 is 7.29.
